{"source": "patent US20110053933A1", "about": "“HYDROXYQUINOXALINECARBOXAMIDE DERIVATIVE” (DAIICHI SANKYO COMPANY, LIMITED, priority 2008, published 2011)", "data": [{"test_system": "γ-glutamyl carboxylation reaction (human Gas6 in Gas6-HEK293 cells)", "experiment": "Inhibitory action on γ-glutamyl carboxylation reaction (secreted γ-glutamyl carboxylated Gas6 by ELISA)", "format": "cell-based", "details": "vitamin K2 100 nM, exposure 18 to 20 hours, ELISA absorbance at 620 nm, read-out: IC50 (50% inhibitory concentration for the γ-glutamyl carboxylation reaction)", "method": "Measurement of Inhibitory Action on γ-Glutamyl Carboxylation Reaction\nCells were used that expressed Gas6 excreted outside the cells when subjected to γ-glutamyl carboxylation, and inhibitory action on γ-glutamyl carboxylation reaction was assessed by measuring the secreted amount of extracellular Gas6 by ELISA method.\n(A) Preparation for Assay Plate Containing Solid-Phase Anti-Human Gas6 Antibody\nGoat anti-human Gas6 antibody (R&D Systems, Inc.) was diluted to 1 μg/ml with Dulbecco's phosphate-buffered saline, and 40 μl aliquots thereof were dispensed into each well of a 384-well microplate. After immobilizing the antibody to the solid phase by allowing it to stand at 4° C. overnight or at room temperature for 2 hours or more, each well was washed three times with wash buffer (10 mM Tris-HCl pH 7.4, 150 mM sodium chloride, 0.05% Tween20). After removing the supernatant, 80 μl aliquots of a 1% aqueous solution of Block Ace (Dainippon Sumitomo Pharma) were dispensed into each well and allowed to react at room temperature for 1 hour or more.\n(B) Exposure of Test Compounds to Cells Stably Expressing Human Gas6\nCells that stably express human Gas6 (Gas6-HEK293), which were prepared by inserting human Gas6 gene (inserted between SalI and NotI within multiple cloning sites of pCIneo expression vector) into HEK293 cells, were grown and sub-cultured using Dulbecco's modified Eagle's medium (DMEM) containing 10% fetal calf serum (FCS). On the day before ELISA measurement, the Gas6-HEK293 cells were detached with trypsin-EDTA, dispersed in DMEM containing 10% FCS, and disseminated into each well of a 384-well, collagen type I-coated plate (Becton-Dickinson) in 30 μl aliquots containing 1.0×10^4 cells each, followed by culturing for 3 to 4 hours at 5% CO2 and 37° C. 30 μl aliquots of DMEM containing test compound solutions, prepared at various concentrations by dissolving in DMSO, and vitamin K2 at 0.1% and 100 nM, respectively (indicating final concentrations in both cases) were added to each well followed by additionally culturing for 18 to 20 hours.\n(C) Quantification of γ-Glutamyl Carboxylated Gas6 by ELISA and Calculation of 50% Inhibitory Concentrations of γ-Glutamyl Carboxylation Reaction\nAfter removing the 1% Block Ace aqueous solution from the preliminarily prepared assay plates containing solid phase anti-human Gas6 antibody, the culture supernatant of Gas6-HEK293 cells exposed to the test compounds was collected and 40 μl aliquots were dispensed into each well followed by allowing to react at room temperature for 2 hours (Step 1). The culture supernatant was removed and each well was washed three times with wash buffer. Thereafter, the same washing procedure was carried out between Steps 2 and 3 and Steps 3 and 4. Subsequently, 40 μl aliquots of mouse anti-human […] antibody (American Diagnostica inc.), adjusted to 0.5 μg/ml with immunoreaction buffer (100 mM Tris-HCl pH 7.4, 0.05% Tween20, 0.1% Block Ace), were dispensed into each well and allowed to react at room temperature for 1 hour (Step 2). Next, 40 μl aliquots of alkaline phosphatase-conjugated anti-mouse IgG antibody adjusted to 1.0 μg/ml with immunoreaction buffer were dispensed into each well and allowed to react at room temperature for 1 hour (Step 3). 40 μl aliquots of BluePhos Microwell (KPL) were dispensed into each well, and after incubating at room temperature for 10 minutes (Step 4), 20 μl aliquots of 5% EDTA were added to each well to stop the color development reaction, followed by measurement of absorbance at 620 nm (Step 5). […]", "units": {"IC50": "nM"}, "values": [{"smiles": "CC[C@H](NC(=O)c1nc2ccccc2nc1O)C(=O)N1CCC(Oc2ccc(OC(F)(F)F)cc2)CC1", "note": "[Example 10, 3-Hydroxy-N-[(1S)-1-({4-[4-(trifluoromethoxy)phenoxy]piperidin-1-yl}carbonyl)propyl]quinoxaline-2-carboxamide]", "IC50": "< 0.6"}, {"smiles": "O=C(N[C@H](C(=O)N1CCC(Oc2ccc(F)cc2)CC1)C1CC1)c1nc2ccccc2nc1O", "note": "[Example 13, N-{(1S)-1-Cyclopropyl-2-[4-(4-fluorophenoxy)piperidin-1-yl]-2-oxoethyl}-3-hydroxyquinoxaline-2-carboxamide]", "IC50": 5.8}, {"smiles": "CC(C)[C@H](NC(=O)c1nc2ccccc2nc1O)C(=O)N1CCC(Oc2ccc(F)cn2)CC1", "note": "[Example 37, N-[(1S)-1-({4-[(5-Fluoropyridin-2-yl)oxy]piperidin-1-yl}carbonyl)-2-methylpropyl]-3-hydroxyquinoxaline-2-carboxamide]", "IC50": 5.4}, {"smiles": "CC(C)[C@H](NC(=O)c1nc2ccccc2nc1O)C(=O)N1CCC(Oc2ccc(C#N)cc2)CC1", "note": "[Example 19, N-[(1S)-1-{[4-(4-Cyanophenoxy)piperidin-1-yl]carbonyl}-2-methylpropyl]-3-hydroxyquinoxaline-2-carboxamide]", "IC50": 4.7}, {"smiles": "CC(C)[C@H](NC(=O)c1nc2ccccc2nc1O)C(=O)N1CCC(Oc2ncc(Br)cn2)CC1", "note": "[Example 65, N-[(1S)-1-({4-[(5-Bromopyrimidin-2-yl)oxy]piperidin-1-yl}carbonyl)-2-methylpropyl]-3-hydroxyquinoxaline-2-carboxamide]", "IC50": 20}, {"smiles": "CC[C@H](NC(=O)c1nc2ccccc2nc1O)C(=O)N1CCC(Oc2ccc(F)cc2F)CC1", "note": "[Example 9, N-[(1S)-1-{[4-(2,4-Difluorophenoxy)piperidin-1-yl]carbonyl}propyl]-3-hydroxyquinoxaline-2-carboxamide]", "IC50": "< 0.6"}, {"smiles": "CC(C)[C@H](NC(=O)c1nc2ccccc2nc1O)C(=O)N1CCC(N(C)c2ccc(F)cc2)CC1", "note": "[Example 30, N-[(1S)-1-({4-[(4-Fluorophenyl)(methyl)amino]piperidin-1-yl}carbonyl)-2-methylpropyl]-3-hydroxyquinoxaline-2-carboxamide]", "IC50": 1.7}, {"smiles": "CC(C)(O)[C@H](NC(=O)c1nc2ccccc2nc1O)C(=O)N1CCC(Oc2ccc(F)cc2)CC1", "note": "[Example 69, N-[(1S)-1-{[4-(4-Fluorophenoxy)piperidin-1-yl]carbonyl}-2-hydroxy-2-methylpropyl]-3-hydroxyquinoxaline-2-carboxamide]", "IC50": 3.4}, {"smiles": "COc1ccc(OC2CCN(C(=O)[C@@H](NC(=O)c3nc4ccccc4nc3O)C(C)C)CC2)cn1", "note": "[Example 86, 3-Hydroxy-N-[(1S)-1-({4-[(6-methoxypyridin-3-yl)oxy]piperidin-1-yl}carbonyl)-2-methylpropyl]quinoxaline-2-carboxamide]", "IC50": 0.7}, {"smiles": "CC(C)[C@H](NC(=O)c1nc2ccccc2nc1O)C(=O)N1CCC(Oc2ccc(F)cc2F)CC1", "note": "[Example 23, N-[(1S)-1-{[4-(2,4-Difluorophenoxy)piperidin-1-yl]carbonyl}-2-methylpropyl]-3-hydroxyquinoxaline-2-carboxamide]", "IC50": "< 0.6"}, {"smiles": "CC(C)[C@H](NC(=O)c1nc2ccccc2nc1O)C(=O)N1CCC(Oc2ccc(C(F)(F)F)cc2)CC1", "note": "[Example 62, 3-Hydroxy-N-[(1S)-2-methyl-1-({4-[4-(trifluoromethyl)phenoxy]piperidin-1-yl}carbonyl)propyl]quinoxaline-2-carboxamide]", "IC50": 3.6}, {"smiles": "CC(C)[C@H](NC(=O)c1nc2ccccc2nc1O)C(=O)N1CCC(Oc2ccc(C(F)(F)F)nn2)CC1", "note": "[Example 100, 3-Hydroxy-N-{(1S)-2-methyl-1-[(4-{[6-(trifluoromethyl)pyridazin-3-yl]oxy}piperidin-1-yl)carbonyl]propyl}quinoxaline-2-carboxamide]", "IC50": 10.4}, {"smiles": "CC(C)[C@H](NC(=O)c1nc2ccccc2nc1O)C(=O)N1CCC(Oc2cnc(N3CCCCC3)nc2)CC1", "note": "[Example 97, 3-Hydroxy-N-[(1S)-2-methyl-1-({4-[(2-piperidin-1-ylpyrimidin-5-yl)oxy]piperidin-1-yl}carbonyl)propyl]quinoxaline-2-carboxamide]", "IC50": 4.5}, {"smiles": "CC[C@H](NC(=O)c1nc2ccccc2nc1O)C(=O)N1CCC(Oc2ccc(C#N)cc2)CC1", "note": "[Example 11, N-[(1S)-1-{[4-(4-Cyanophenoxy)piperidin-1-yl]carbonyl}propyl]-3-hydroxyquinoxaline-2-carboxamide]", "IC50": 6.5}, {"smiles": "CC(C)[C@H](NC(=O)c1nc2ccccc2nc1O)C(=O)N1CCC(C(=O)c2ccc(F)cc2O)CC1", "note": "[Example 67, N-[(1S)-1-{[4-(4-Fluoro-2-hydroxybenzoyl)piperidin-1-yl]carbonyl}-2-methylpropyl]-3-hydroxyquinoxaline-2-carboxamide]", "IC50": 0.75}, {"smiles": "CC(C)[C@H](NC(=O)c1nc2ccc(F)cc2nc1O)C(=O)N1CCC(Oc2ccc(F)cc2)CC1", "note": "[Example 74, N-[(1S)-1-{[4-(4-Fluorophenoxy)piperidin-1-yl]carbonyl}-2-methylpropyl]-6-fluoro-3-hydroxyquinoxaline-2-carboxamide]", "IC50": 5.5}, {"smiles": "CC(C)[C@H](NC(=O)c1nc2ccccc2nc1O)C(=O)N1CCC(C(O)c2ccc(F)cc2F)CC1", "note": "(stereo partly drawn) [Example 99, N-[(1S)-1-({4-[(2,4-Difluorophenyl)(hydroxy)methyl]piperidin-1-yl}carbonyl)-2-methylpropyl]-3-hydroxyquinoxaline-2-carboxamide]", "IC50": 4.9}, {"smiles": "CC(C)[C@H](NC(=O)c1nc2ccccc2nc1O)C(=O)N1CCC(Oc2ccc(Cl)cn2)CC1", "note": "[Example 29, N-[(1S)-1-({4-[(5-Chloropyridin-2-yl)oxy]piperidin-1-yl}carbonyl)-2-methylpropyl]-3-hydroxyquinoxaline-2-carboxamide]", "IC50": 7.2}, {"smiles": "CC(C)[C@H](NC(=O)c1nc2ccccc2nc1O)C(=O)N1CCC(Oc2ccc(F)cc2)CC1", "note": "[Example 16, N-[(1S)-1-{[4-(4-Fluorophenoxy)piperidin-1-yl]carbonyl}-2-methylpropyl]-3-hydroxyquinoxaline-2-carboxamide]", "IC50": 7}]}]}
